In one data set the test system is guinea pig left atria. The experiment in a line: Positive inotropic effect in guinea pig left atria. The note with it: Cavia porcellus; for EC50: concentration that increases developed tension (DT) by 50% above the control DT, left atria paced at 2 Hz, 37° C.; for Emax: ratio of the maximum effect of the test compound to that of Bay K8644, read-out: Intrinsic Activity. The protocol: Guinea pigs are killed by cervical dislocation. The left atria are removed and mounted at 1 gm resting tension in tissue baths containing oxygenated Krebs bicarbonate solution which is kept at 37° C. The left atria are electrically paced at 2 Hz with square wave pulses of 1 msec duration. The voltage is set at 1.5×threshold level.
After a one hour equilibration period, control values for developed tension (DT, gm) are recorded. Test compounds are then added to the baths, in a cumulative manner to a maximum concentration of 10^-4, to obtain a concentration-response curve. Treatment values of DT are obtained after the drug effect has reached a plateau and the exposure time for each concentration is 5-8 minutes. Percent change of the treatment value from the control value is calculated at each concentration of the test compound.

A further data set has as its target alpha1-adrenoceptor. Put plainly: [3H]-Prazosin binding assay (affinity for alpha1-adrenoceptors). The settings on record: partially purified rat brain membranes; 0.2 nM [3H]-prazosin, 60 min, 25° C. The protocol:
The [^3 H]-prazosin binding assay was carried out according to the method described by Timmermans, P. B. M. W. M., Schoop, A. M. C., and Van Zwieten, P. A., Biochem. Pharmacol., 31, 899-905, (1982). The reaction mixture contained partially purified rat brain membranes (source of alpha1 -adrenoceptors), 0.2 nM [^3 H]-prazosin with or without potential displacer in Tris buffer. The mixture was incubated for 60 minutes at 25° C. and subsequently terminated by rapid filtration through glass fiber-filter. Receptor-bound [^3 H]-prazosin trapped in the filter was quantitated by scintillation counting. The inhibitory concentration (IC50) of potential displacer which gives 50% displacement of the total specifically bound [^3 H]-prazosin is presented as a measure of the affinity of such compound for the alpha1 -adrenoceptor.

The target in a further data set is T1, Ca^2+ channel (Rattus norvegicus, UniProt P22002).
T1 construct: rat cardiac microsomes (source of Ca^2+ channels); from tissue; host or cells: rat cardiac microsomes
The experiment in a line: [3H]-Nitrendipine binding assay (affinity for calcium channels). The note with it: rat cardiac microsomes; 0.5 nM [3H]-nitrendipine, 60 min, 25° C. The protocol: [^3 H]-Nitrendipine binding assay was carried out according to the method described by G. T. Bolger, et al., Biochem. Biophys. Res. Comm., 104, 1604-1609, (1982). The reaction mixture contained rat cardiac microsomes (source of Ca^2+ channels), 0.5 nM [^3 H]-nitrendipine with or without potential displacer in Tris buffer. The mixture was incubated for 60 minutes at 25° C. and subsequently terminated by rapid filtration through a glass fiber-filter. Membrane-bound [^3 H]-nitrendipine trapped in the filter was quantitated by scintillation counting. The inhibitory concentration (IC50) of potential displacer which gives 50% displacement of the total specifically bound [^3 H]-nitrendipine is presented as a measure of the affinity of such compound for the Ca^2+ channel.

For data set [1], the system named is influx of calcium ions into cells. The settings on record: background, cited from earlier work.

Structures are written as SMILES. A value given as a limit tells only on which side of the number the result lay.

The term IC50 denotes the midpoint of a concentration-inhibition curve.

T1 sequence (P22002 whole entry, other chains not shown): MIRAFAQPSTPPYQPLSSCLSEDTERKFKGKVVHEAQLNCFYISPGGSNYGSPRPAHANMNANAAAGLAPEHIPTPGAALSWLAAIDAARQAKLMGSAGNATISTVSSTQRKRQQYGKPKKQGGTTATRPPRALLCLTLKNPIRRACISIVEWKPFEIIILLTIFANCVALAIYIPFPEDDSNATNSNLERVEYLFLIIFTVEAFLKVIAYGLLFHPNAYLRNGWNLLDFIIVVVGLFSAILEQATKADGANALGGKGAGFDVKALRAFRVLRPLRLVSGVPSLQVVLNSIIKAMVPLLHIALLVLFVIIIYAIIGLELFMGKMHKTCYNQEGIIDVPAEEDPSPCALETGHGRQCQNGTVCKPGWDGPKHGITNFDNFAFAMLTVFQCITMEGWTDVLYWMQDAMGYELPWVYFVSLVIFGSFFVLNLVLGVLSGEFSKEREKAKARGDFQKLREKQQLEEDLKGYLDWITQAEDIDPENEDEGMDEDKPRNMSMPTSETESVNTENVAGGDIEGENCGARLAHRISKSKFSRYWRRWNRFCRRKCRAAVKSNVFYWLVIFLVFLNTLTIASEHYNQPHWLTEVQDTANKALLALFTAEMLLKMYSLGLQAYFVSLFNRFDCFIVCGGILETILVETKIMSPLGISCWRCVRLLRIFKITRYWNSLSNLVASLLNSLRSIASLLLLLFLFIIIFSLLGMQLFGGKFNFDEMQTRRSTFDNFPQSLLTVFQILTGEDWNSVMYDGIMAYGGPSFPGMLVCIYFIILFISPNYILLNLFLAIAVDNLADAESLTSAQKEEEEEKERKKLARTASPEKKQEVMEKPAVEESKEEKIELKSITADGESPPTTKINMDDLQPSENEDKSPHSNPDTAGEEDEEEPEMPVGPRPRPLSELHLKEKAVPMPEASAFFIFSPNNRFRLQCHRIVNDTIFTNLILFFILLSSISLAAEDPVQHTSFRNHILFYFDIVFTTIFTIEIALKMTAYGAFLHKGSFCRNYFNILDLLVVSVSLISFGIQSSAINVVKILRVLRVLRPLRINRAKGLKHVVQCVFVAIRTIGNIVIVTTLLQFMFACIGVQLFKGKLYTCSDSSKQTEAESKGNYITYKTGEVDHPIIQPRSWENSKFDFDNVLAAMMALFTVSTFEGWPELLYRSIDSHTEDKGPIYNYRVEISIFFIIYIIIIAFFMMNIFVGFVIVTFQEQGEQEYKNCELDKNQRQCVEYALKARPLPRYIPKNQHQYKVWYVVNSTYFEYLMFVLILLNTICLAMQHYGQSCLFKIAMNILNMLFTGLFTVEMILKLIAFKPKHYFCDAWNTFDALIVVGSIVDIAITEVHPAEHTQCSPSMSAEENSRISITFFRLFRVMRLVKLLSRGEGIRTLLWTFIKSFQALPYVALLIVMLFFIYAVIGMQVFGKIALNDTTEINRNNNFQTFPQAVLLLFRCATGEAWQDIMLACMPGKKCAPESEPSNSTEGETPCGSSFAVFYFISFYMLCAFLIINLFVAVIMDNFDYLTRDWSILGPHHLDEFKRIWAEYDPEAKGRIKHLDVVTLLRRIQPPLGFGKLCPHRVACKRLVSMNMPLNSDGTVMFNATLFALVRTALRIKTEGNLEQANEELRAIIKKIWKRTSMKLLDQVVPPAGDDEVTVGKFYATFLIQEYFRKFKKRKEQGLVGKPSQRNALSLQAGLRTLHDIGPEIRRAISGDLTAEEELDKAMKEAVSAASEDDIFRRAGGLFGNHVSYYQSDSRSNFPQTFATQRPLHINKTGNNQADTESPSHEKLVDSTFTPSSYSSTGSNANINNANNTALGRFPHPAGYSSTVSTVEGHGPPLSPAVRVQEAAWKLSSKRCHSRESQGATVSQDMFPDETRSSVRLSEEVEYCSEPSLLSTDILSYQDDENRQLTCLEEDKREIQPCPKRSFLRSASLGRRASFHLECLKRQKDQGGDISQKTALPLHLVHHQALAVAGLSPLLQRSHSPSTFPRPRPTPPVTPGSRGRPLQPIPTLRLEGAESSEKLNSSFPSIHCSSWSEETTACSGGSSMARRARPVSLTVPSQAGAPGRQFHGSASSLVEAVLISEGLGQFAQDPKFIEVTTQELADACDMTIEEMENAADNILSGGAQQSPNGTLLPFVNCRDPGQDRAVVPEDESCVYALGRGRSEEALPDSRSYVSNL
T1 sequence (P54290 25-944 partner limits assumed, other chains not shown): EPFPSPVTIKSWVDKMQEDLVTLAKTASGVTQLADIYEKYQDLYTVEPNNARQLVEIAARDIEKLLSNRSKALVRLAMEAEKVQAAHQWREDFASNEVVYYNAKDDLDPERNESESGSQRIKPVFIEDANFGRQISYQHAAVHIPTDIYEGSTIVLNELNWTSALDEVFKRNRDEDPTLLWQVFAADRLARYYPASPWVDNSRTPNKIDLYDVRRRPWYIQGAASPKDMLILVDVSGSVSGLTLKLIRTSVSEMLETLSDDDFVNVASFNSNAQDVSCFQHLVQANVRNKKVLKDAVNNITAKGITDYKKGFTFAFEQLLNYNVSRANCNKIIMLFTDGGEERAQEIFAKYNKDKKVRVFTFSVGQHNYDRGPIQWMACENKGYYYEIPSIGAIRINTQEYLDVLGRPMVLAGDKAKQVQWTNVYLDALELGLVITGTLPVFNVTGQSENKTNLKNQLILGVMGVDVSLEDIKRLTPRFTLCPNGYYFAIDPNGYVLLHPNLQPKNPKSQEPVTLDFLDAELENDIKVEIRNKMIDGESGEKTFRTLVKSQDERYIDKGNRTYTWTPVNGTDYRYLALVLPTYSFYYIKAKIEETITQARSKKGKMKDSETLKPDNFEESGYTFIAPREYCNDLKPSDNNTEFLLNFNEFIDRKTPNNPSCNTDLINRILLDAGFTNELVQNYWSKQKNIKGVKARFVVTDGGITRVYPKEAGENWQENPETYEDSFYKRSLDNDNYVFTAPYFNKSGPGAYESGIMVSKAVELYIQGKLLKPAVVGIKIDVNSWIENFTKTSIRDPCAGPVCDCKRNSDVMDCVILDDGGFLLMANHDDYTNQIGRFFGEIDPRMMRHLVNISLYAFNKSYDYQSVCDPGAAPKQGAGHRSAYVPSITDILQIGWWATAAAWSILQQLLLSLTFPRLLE
T1 sequence (P54290 945-1091 partner limits assumed, other chains not shown): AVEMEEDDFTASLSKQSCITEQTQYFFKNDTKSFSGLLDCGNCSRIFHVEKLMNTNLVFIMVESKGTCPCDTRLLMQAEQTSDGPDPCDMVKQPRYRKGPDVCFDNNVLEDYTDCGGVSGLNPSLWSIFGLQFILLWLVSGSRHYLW

Turning to `COc1ccccc1N1CCN(CCCCOC(=O)C2=C(C)NC(C)=C([N+](=O)[O-])C2c2cccn2C)CC1` (stereo not drawn) [Example 57, 1,4-Dihydro-2,6-dimethyl-4-(1-methyl-1H-pyrrol-2-yl)-5-nitro-3-pyridinecarboxylic acid, {4-[4-(2-methoxyphenyl)1-piperazinyl]butyl} ester], in the data set with guinea pig left atria, the EC50 came out at 2.3 µM and the Emax worked out at 110%. The IC50 at alpha1-adrenoceptor was 0.033 µM. The IC50 at Ca^2+ channel turned out to be 1.3 µM.

In the case of `COc1ccccc1N1CCN(CCOC(=O)C2=C(C)NC(C)=C([N+](=O)[O-])C2c2ccco2)CC1` (stereo not drawn) [Example 59], in the data set on guinea pig left atria, the EC50 was 2.7 µM and the Emax stood at 98%. The molecule further registered an IC50 at alpha1-adrenoceptor of 0.1 µM. Moreover, on Ca^2+ channel, the IC50 was 1.5 µM.

With `COC(=O)C1=C(C)NC(C)=C([N+](=O)[O-])C1c1ccccc1OCCCCCN1CCN(C(=O)C2COc3ccccc3O2)CC1` (stereo not drawn) [Example 9], in the data set on guinea pig left atria, the EC50 was found to be 53 µM and the Emax came out at 62%. Moreover, the IC50 at alpha1-adrenoceptor came out at 5.2 µM. On Ca^2+ channel, the IC50 stood at 0.95 µM.

Molecule `CC1=C(C(=O)OCCCCN2CCN(c3ncccn3)CC2)C(c2ccco2)C([N+](=O)[O-])=C(C)N1` (stereo not drawn) [Example 70, 4-(2-Furanyl)-1,4-dihydro-2,6-dimethyl-5-nitro-3-pyridinecarboxylic acid, {4-[4-(2-pyrimidinyl)-1-piperazinyl]butyl} ester] returned an EC50 with guinea pig left atria of 5 µM. Further, in the data set on guinea pig left atria, the Emax amounted to 132%. Moreover, the IC50 at alpha1-adrenoceptor came out at 0.84 µM; at Ca^2+ channel, 2 µM.

Take `COC(=O)C1=C(C)NC(C)=C([N+](=O)[O-])C1c1ccoc1CCCCCN1CCN(C(=O)c2ccco2)CC1` (stereo not drawn) [Example 2]: in the data set with guinea pig left atria, the EC50 stood at 96 µM. Further, the Emax in the data set with guinea pig left atria came to 144%. Besides, the half-inhibitory concentration (IC50) at alpha1-adrenoceptor is 1.9 µM; on Ca^2+ channel, 1.5 µM.

In the case of `CC1=C(C(=O)OCCCCN2CCN(c3ncccn3)CC2)C(c2cccnc2)C([N+](=O)[O-])=C(C)N1` (stereo not drawn) [Example 53, 1,4-Dihydro-2,6-dimethyl-5-nitro-4-(3-pyridinyl)-3-pyridinecarboxylic acid: {4-[4-(2-pyrimidinyl)-1-piperazinyl]butyl} ester], in the data set on guinea pig left atria, the EC50 was 25 µM and the Emax worked out at 189%. The IC50 on alpha1-adrenoceptor came to 0.4 µM. The IC50 on Ca^2+ channel stood at 4.4 µM.

For the molecule `CC1=C(C(=O)OCCN2CCN(c3ncccn3)CC2)C(c2ccco2)C([N+](=O)[O-])=C(C)N1` (stereo not drawn) [Example 60], in the data set on guinea pig left atria, the EC50 was 1.6 µM and the Emax is 140%. At alpha1-adrenoceptor, this molecule yielded an IC50 of 5.9 µM. Besides, the concentration for half-maximal inhibition (IC50) on Ca^2+ channel turned out to be 2 µM.

The molecule `COc1ccccc1N1CCN(CCOC(=O)C2=C(C)NC(C)=C([N+](=O)[O-])C2c2cccnc2)CC1` (stereo not drawn) [Example 61] displayed an EC50 in the data set with guinea pig left atria of 1.5 µM. In the data set on guinea pig left atria, the Emax is 164%. In addition, the results for the IC50 on alpha1-adrenoceptor and on Ca^2+ channel were 0.025 µM and 1.3 µM, respectively.

In the case of `CC1=C(C(=O)OCCN2CCN(c3ncccn3)CC2)C(c2cccnc2)C([N+](=O)[O-])=C(C)N1` (stereo not drawn) [Example 62], the EC50 with guinea pig left atria is > 100 µM. Moreover, the Emax in the data set with guinea pig left atria came to 48%. Further, the IC50 at alpha1-adrenoceptor is > 1 µM; at Ca^2+ channel it was 3.7 µM.

Regarding `CC1=C(C(=O)OCCN2CCN(c3ncccn3)CC2)C(c2cccc3nonc23)C([N+](=O)[O-])=C(C)N1` (stereo not drawn) [Example 76], in the data set on guinea pig left atria, the EC50 came out at 0.056 µM and the Emax amounted to 156%. For the same molecule, the concentration for half-maximal inhibition (IC50) on alpha1-adrenoceptor was 17 µM. For the same molecule, on Ca^2+ channel, the IC50 came to 0.085 µM.

In the case of `COC(=O)C1=C(C)NC(C)=C([N+](=O)[O-])C1c1ccccc1C(F)(F)F` (stereo not drawn) [Bay K8644], in the data set on guinea pig left atria, the EC50 worked out at 0.15 µM and the Emax was 100%. Besides, in data set [1] (literature), the “calcium influx, inotropic and vascular effects” value is “promote an influx of calcium ions, into cells thereby producing positive inotropic and vasoconstrictor effects”; the “potency as a calcium agonist relative to CGP 28392” value is reported as “more than ten times as potent as CGP 28392 as a calcium agonist”. Moreover, the coronary vasoconstriction result in data set [1] (not useful as a cardiotonic) was “coronary vasoconstricting properties”.

On to `CC1=C(C(=O)OCCN2CCN(c3ncccn3)CC2)C(c2cccs2)C([N+](=O)[O-])=C(C)N1` (stereo not drawn) [Example 73], for which, in the data set on guinea pig left atria, the EC50 is 0.98 µM and the Emax was determined as 84%. Besides, on alpha1-adrenoceptor, the IC50 is 4.9 µM. The IC50 at Ca^2+ channel was determined as 2.4 µM.

In the case of `COc1ccccc1N1CCN(CCCCOC(=O)C2=C(C)NC(C)=C([N+](=O)[O-])C2c2ccoc2)CC1` (stereo not drawn) [Example 67], in the data set with guinea pig left atria, the EC50 is 24 µM and the Emax was found to be 86%. This molecule came in with a half-inhibitory concentration (IC50) on alpha1-adrenoceptor of 0.063 µM. The IC50 on Ca^2+ channel was 3.5 µM.

For `CC1=C(C(=O)OCCN2CCN(c3ncccn3)CC2)C(c2ccsc2)C([N+](=O)[O-])=C(C)N1` (stereo not drawn) [Example 66, 1,4-Dihydro-2,6-dimethyl-5-nitro-4-(3-thienyl)-3-pyridinecarboxylic acid, {2-[4-(2-pyrimidinyl)-1-piperazinyl]ethyl} ester], in the data set with guinea pig left atria, the EC50 turned out to be 0.85 µM and the Emax came out at 210%. At alpha1-adrenoceptor, this molecule returned an IC50 of 6 µM. Moreover, at Ca^2+ channel, the IC50 came to 0.95 µM.

As to `CC1=C(C(=O)OCCN2CCN(c3ncccn3)CC2)C(c2ccoc2)C([N+](=O)[O-])=C(C)N1` (stereo not drawn) [Example 56, 4-(3-Furanyl)-1,4-dihydro-2,6-dimethyl-5-nitro-3-pyridinecarboxylic acid, {2-[4-(2-pyrimidinyl)-1-piperazinyl]ethyl} ester], in the data set with guinea pig left atria, the EC50 was found to be 0.43 µM and the Emax was found to be 171%. Moreover, on alpha1-adrenoceptor, the IC50 stood at 5.2 µM. Besides, the IC50 on Ca^2+ channel was 4.3 µM.

In the case of `CC1=C(C(=O)OCCN2CCN(c3ncccn3)CC2)C(c2cccn2C)C([N+](=O)[O-])=C(C)N1` (stereo not drawn) [Example 78, 1,4-Dihydro-2,6-dimethyl-4-(1-methyl-1H-pyrrol-2-yl)-5-nitro-3-pyridinecarboxylic acid, {2-[4-(2-pyrimidinyl)-1-piperazinyl]ethyl} ester], in the data set on guinea pig left atria, the EC50 was determined as 0.58 µM and the Emax was 231%. Besides, the IC50 at alpha1-adrenoceptor came out at 3.3 µM. Moreover, the half-inhibitory concentration (IC50) at Ca^2+ channel was 1.7 µM.

Regarding `COC(=O)C1=C(C)NC(C)=C([N+](=O)[O-])C1c1ccccc1OCCCCCN1CCN(c2ccc(Cl)nn2)CC1` (stereo not drawn) [Example 7], in the data set with guinea pig left atria, the EC50 was determined as 12 µM and the Emax is 149%. The molecule further had an IC50 at alpha1-adrenoceptor of 1.9 µM. Moreover, the half-inhibitory concentration (IC50) at Ca^2+ channel stood at 0.65 µM.
